Laboratory results from the NIST ThermoML archive (doi:10.1021/je700546r).
Values joined by “and” are separate entries in the source; they are usually repeats but may differ in a detail not shown here. Identical values can stand only once.

Conditions: for Triple point temperature: Adiabatic calorimetry

ON=C1CCCCC1 [cyclohexanone oxime]
Conditions | vapor or sublimation pressure
285.7 K, Crystal 2, Transpiration method | 0.00078 kPa
288.11 K, Crystal 2, Knudsen effusion | 0.001028 kPa
290 K, Crystal 2, Transpiration method | 0.00118 kPa
292.6 K, Crystal 2, Transpiration method | 0.00157 kPa
293.82 K, Crystal 2, Knudsen effusion | 0.00186 kPa
293.87 K, Crystal 2, Knudsen effusion | 0.001759 kPa
295.1 K, Crystal 2, Transpiration method | 0.00215 kPa
298.1 K, Crystal 2, Transpiration method | 0.00275 kPa
298.2 K, Crystal 2, Transpiration method | 0.00302 kPa and 0.00293 kPa
298.77 K, Crystal 2, Knudsen effusion | 0.003118 kPa
301.1 K, Crystal 2, Transpiration method | 0.00396 kPa
302.9 K, Crystal 1, Transpiration method | 0.005 kPa
303.73 K, Crystal 1, Knudsen effusion | 0.005234 kPa
303.74 K, Crystal 1, Knudsen effusion | 0.005145 kPa
305.4 K, Crystal 1, Transpiration method | 0.00626 kPa
307.6 K, Crystal 1, Transpiration method | 0.00806 kPa
308.7 K, Crystal 1, Knudsen effusion | 0.00837 kPa
310.2 K, Crystal 1, Transpiration method | 0.01034 kPa
313 K, Crystal 1, Transpiration method | 0.0136 kPa
313.62 K, Crystal 1, Knudsen effusion | 0.01375 kPa
315.3 K, Crystal 1, Transpiration method | 0.01601 kPa
318 K, Crystal 1, Transpiration method | 0.02155 kPa
320.3 K, Crystal 1, Transpiration method | 0.02671 kPa
323.1 K, Crystal 1, Transpiration method | 0.03364 kPa
323.32 K, Crystal 1, Knudsen effusion | 0.03373 kPa
323.35 K, Crystal 1, Knudsen effusion | 0.03472 kPa
325.4 K, Crystal 1, Transpiration method | 0.04273 kPa
328 K, Crystal 1, Transpiration method | 0.05312 kPa
330.4 K, Crystal 1, Transpiration method | 0.06593 kPa
333.1 K, Crystal 1, Transpiration method | 0.08234 kPa
338.2 K, Crystal 1, Transpiration method | 0.1232 kPa
340.2 K, Crystal 1, Transpiration method | 0.1376 kPa
343.3 K, Crystal 1, Transpiration method | 0.1758 kPa
345.6 K, Crystal 1, Transpiration method | 0.213 kPa
348.3 K, Crystal 1, Transpiration method | 0.2639 kPa

Liquid, Transpiration method
Conditions | vapor or sublimation pressure [kPa]
364.6 K | 0.8624
365.7 K | 0.8948
367.9 K | 1.03
369.7 K | 1.119
370.5 K | 1.181
373.6 K | 1.388
373.7 K | 1.405
376.6 K | 1.661
377.7 K | 1.759
377.8 K | 1.786
379.7 K | 1.922
381.8 K | 2.124
382.8 K | 2.221
385.8 K | 2.574
388.9 K | 3.046
391.9 K | 3.486
394.9 K | 3.978

Conditions | Triple point temperature [K]
Crystal 1 | 362.2
Crystal 2 | 301.5
Crystal 3 | 241.5
